Laboratory results published in patent EP0508726A1, “Novel process for the preparation of 9-deoxo-8a-aza-8a-homoerythromycin a and its 8a-alkyl derivatives” (MERCK & CO. INC., priority 1991, dated 1992).
Converted amounts (≈) assume the structure as drawn.

What was measured:
Assay in all cases: liquid turbidimetric microtiter MIC determination
Format in all cases: cell-based
[1] = tested on: Enterococcus faecalis MB 5407; details: MB5407, brain heart infusion broth
Description: (§1) The antibacterial activities of compounds (IV), (X) against a panel of aerobic Gram positive and negative bacteria is shown in the following Table. The assay employs a liquid turbidimetric microtiter method for the determination of the minimum inhibitory concentration (MIC) in brain heart infusion broth. […] The MIC is generally not an absolute value but rather a concentration range that falls within a two-fold dilution limit. Generally twelve two-fold dilutions of the test compound are employed with the initial concentration set at 128 mcg/ml.

[2] = tested on: Enterococcus faecium MB 5416; details: MB5416, brain heart infusion broth
Description: as §1

[3] = tested on: Escherichia coli MB 2884; details: MB2884, brain heart infusion broth
Description: as §1

[4] = tested on: Escherichia coli MB 4926; details: MB4926, brain heart infusion broth
Description: as §1

[5] = tested on: Klebsiella pneumoniae MB 4005; details: MB4005, brain heart infusion broth
Description: as §1

[6] = tested on: Pseudomonas stutzeri MB 1231; details: Stutzerimonas stutzeri, MB1231, brain heart infusion broth
Description: as §1

[7] = tested on: Staphylococcus aureus MB 2865; details: MB2865, brain heart infusion broth
Description: as §1

[8] = tested on: Staphylococcus epidermidis MB 5414; details: MB5414, brain heart infusion broth
Description: as §1

[9] = tested on: Staphylococcus haemolyticus MB 5412; details: MB5412, brain heart infusion broth
Description: as §1

[10] = tested on: Steptococcus viridans CL 2943; details: brain heart infusion broth
Description: as §1

[11] = tested on: Streptococcus agalactiae CL 1343; details: CL1343, brain heart infusion broth
Description: as §1

[12] = tested on: Streptococcus pneumoniae CL 2883; details: CL2883, brain heart infusion broth
Description: as §1

[13] = tested on: Streptococcus pyogenes MB 2874; details: MB2874, brain heart infusion broth
Description: as §1

[14] = tested on: Streptococcus pyogenes MB 54061; details: MB54061, brain heart infusion broth
Description: as §1

[15] = tested on: Yersinia enterocoltica CL 1598; details: CL1598, brain heart infusion broth
Description: as §1

| Compound | MIC [1] [µg/mL] | MIC [2] [µg/mL] | MIC [3] [µg/mL] | MIC [4] [µg/mL] | MIC [5] [µg/mL] | MIC [6] [µg/mL] | MIC [7] [µg/mL] | MIC [8] [µg/mL] | MIC [9] [µg/mL] | MIC [10] [µg/mL] | MIC [11] [µg/mL] | MIC [12] [µg/mL] | MIC [13] [µg/mL] | MIC [14] [µg/mL] | MIC [15] [µg/mL] |
| --- | --- | --- | --- | --- | --- | --- | --- | --- | --- | --- | --- | --- | --- | --- | --- |
| CC[C@H]1OC(=O)[C@H](C)[C@@H](O[C@H]2C[C@@](C)(OC)[C@@H](O)[C@H](C)O2)[C@H](C)[C@@H](O[C@@H]2O[C@H](C)C[C@H](N(C)C)[C@H]2O)[C@](C)(O)C[C@@H](C)NC[C@H](C)[C@@H](O)[C@]1(C)O [(IV), 9-Deoxo-8a-aza-8a-homoerythromycin A] | 8 (≈ 10.9 µM) | 0.25 (≈ 0.34 µM) | 4 (≈ 5.44 µM) | 2 (≈ 2.72 µM) | 64 (≈ 87.1 µM) | ≤ 0.06 | 0.5 (≈ 0.68 µM) | 1 (≈ 1.36 µM) | 0.5 (≈ 0.68 µM) | 8 (≈ 10.9 µM) | ≤ 0.06 | 0.06 (≈ 0.0816 µM) | 0.06 (≈ 0.0816 µM) | 128 (≈ 174 µM) | 8 (≈ 10.9 µM) |
| CC[C@H]1OC(=O)[C@H](C)[C@@H](O[C@H]2C[C@@](C)(OC)[C@@H](O)[C@H](C)O2)[C@H](C)[C@@H](O[C@@H]2O[C@H](C)C[C@H](N(C)C)[C@H]2O)[C@](C)(O)C[C@@H](C)N(C)C[C@H](C)[C@@H](O)[C@]1(C)O [(X), 9-Deoxo-8a-methyl-8a-aza-8a-homoerythromycin A] | 4 (≈ 5.34 µM) | 0.25 (≈ 0.334 µM) | 1 (≈ 1.34 µM) | ≤ 0.06 | 2 (≈ 2.67 µM) | ≤ 0.06 | 0.5 (≈ 0.668 µM) | 1 (≈ 1.34 µM) | 0.5 (≈ 0.668 µM) | 1 (≈ 1.34 µM) | ≤ 0.06 | ≤ 0.06 | ≤ 0.06 | 128 (≈ 171 µM) | 2 (≈ 2.67 µM) |
